# Measured values taken from US6376679B2, “Photoprotective/cosmetic compositions comprising novel benz-x-azole-substituted silane/siloxane sunscreens” (Societe L'Oreal S.A., priority 1997, dated 2002).
# “And” between values parts separate entries of the source, which are not always exact repeats. Equal entries are not always repeated.
# Experiment: UV absorption (ethanol)
# Type: physicochemical
# Details: UV spectrum in ethanol; for εmax: at the λmax of the same cell
λmax,εmax,SMILES
302 nm and 343 nm,"18,500 and 16,200",C=C(C)Cc1cc(OC)cc(-c2nc3ccccc3[nH]2)c1O [2-(1H-benzimidazol-2-yl)-4-methoxy-6-(2-methyl-allyl)-phenol]
299 nm and 333 nm,"20,130 and 14,180",C=C(C)Cc1cc(C)cc(-c2nc3ccccc3o2)c1O [2-benzoxazol-2-yl-4-methyl-6-(2-methyl-allyl)-phenol]

SMILES,λmax,εmax
C[Si](C)(C)CCCOc1ccc(-c2nc3ccccc3[nH]2)c(O)c1 [Example 3],333 nm and 318 nm,"22,200 and 24,250"
